# US20250270206A1, “COMPOSITIONS AND METHODS FOR INHIBITION OF RAS” (TheRas, Inc., priority 2022, published 2025)
# Target: T1, Avi-KRAS G12C (1-169) GppNHp/RAF1 RBD-3×FLAG (52-151) (Homo sapiens, UniProt P01116, G12C)
# T1 construct: Avi-KRAS G12C (1-169) GppNHp
# Test: KRAS G12C-effector (RAF1 RBD) protein:protein interaction HTRF disruption assay
# Format: biochemical
# Conditions: PPI HTRF
# Protocol: A protein:protein interaction (PPI) Homogeneous Time Resolved Fluorescence (HTRF) assay was used to determine the effectiveness of compounds of the present disclosure in disrupting KRAS G12C protein and effector (RAF1) binding.
# The HTRF assay used the following reagents and proteins: 50 nM Avi-KRAS G12C (1-169) GppNHp/RAF1 RBD-3×FLAG (52-151); 75 nM Avi-RAF1 RBD-3×FLAG; Assay Buffer: 50 mM Tris pH 7.5, 100 mM NaCl, 5 mM MgCl2, 0.1% BSA, 0.01% Tween 20, 10% DMSO; Bead Buffer: 50 mM Tris pH 7.5, 0.01% Tween 20; Assay volume: 20 μL (384 well plate-low volume format); and Compound titration: 30-0.02 μM, 3× dilution series.
# The HTRF assay employed the following protocol:
# Compounds were dispensed in assay plate (384-well, Grenier Bione #784075) using Echo (model 555) with dose response settings: 200 nL final volume, titration from 100 μM as a 10-point dilution series. KRAS proteins were prepared in assay buffer, and dispensed on plates, 5 μL per well, then incubated for 1 h at room temperature, with 700 rpm shaking. RAF1 RBD were prepared in assay buffer, dispensed onto plates, 5 μL per well, and then incubated for 1 h at room temperature, with 700 rpm shaking. Reagent mix was then prepared and dispensed on plates, 10 μL per well, and then incubated for 1 h at room temperature, with 700 rpm shaking.
# Plates were analyzed on an Envision plate reader using the following setting: Excitation 320 nm, Bandwidth 75 nm, Emission 615 nm, Bandwidth 85 nm; Gain 100%; Flashes 100; Lag 60 μs. Data was reported as percentage of activity, with DMSO as 100%. Data was plotted and analyzed using Prism 8.
# T1 sequence (P01116 1-169 isoform P01116-2 G12C limits assumed): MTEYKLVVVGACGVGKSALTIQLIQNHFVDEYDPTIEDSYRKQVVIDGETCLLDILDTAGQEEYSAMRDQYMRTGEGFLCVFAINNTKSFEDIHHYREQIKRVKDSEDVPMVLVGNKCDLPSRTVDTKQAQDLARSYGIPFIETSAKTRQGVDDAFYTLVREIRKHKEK
row,Structure (SMILES),IC50 [µM]
1,C=CC(=O)N1CC[C@@H](N(C)c2nc(OC)nc3c(F)c(-c4ccc(F)c5sc(N)c(C#N)c45)ncc23)[C@H]1C [Compound 32],5 to 20
2,C=CC(=O)N1CC[C@@H](N(C)c2nc(OCCOC)nc3c(F)c(-c4ccc(F)c5sc(N)c(C#N)c45)ncc23)[C@H]1C [Compound 31],0.5 to 5
3,C=CC(=O)N1CC[C@@H](N(C)c2ncnc3c(F)c(-c4ccc(F)c5sc(N)c(C#N)c45)ncc23)[C@H]1C [Compound 36],5 to 20
4,C=CC(=O)N1CC[C@@H](N(C)c2nc(OC[C@@H]3CC4(CC4)CN3C)nc3c(F)c(-c4ccc(F)c5sc(N)c(C#N)c45)ncc23)[C@H]1C [Compound 24],≤ 0.5
5,C=CC(=O)N1CC[C@@H](N(C)c2nc(OCCO)nc3c(F)c(-c4ccc(F)c5sc(N)c(C#N)c45)ncc23)[C@H]1C [Compound 35],5 to 20

# The remaining lines, values ahead:
row,IC50 [µM],Structure (SMILES)
1,≤ 0.5,C=CC(=O)N1CC[C@@H](N(C)c2nc(OC[C@@H]3CC4(CC4)CN3C)nc3c(F)c(-c4ccc(F)c5sc(N)c(C#N)c45)ncc23)[C@H]1COC [Compound 21]
2,≤ 0.5,C=CC(=O)N1CC[C@@H](N(C)c2nc(OC[C@@H]3CCCN3C)nc3c(F)c(-c4ccc(F)c5sc(N)c(C#N)c45)ncc23)[C@H]1C [Compound 22]
3,≤ 0.5,C=CC(=O)N1CC[C@@H](N(C)c2nc(OC[C@@H]3CCCN3C)nc3c(F)c(-c4ccc(F)c5sc(N)c(C#N)c45)ncc23)[C@H]1COC [Compound 26]
